Where two headings read alike, the source gives them in different places.
Tests used:
[1] = test system: clinically isolated P. aeruginosa; experiment: checkerboard titration, gemifloxacin or ciprofloxacin with ceftazidime, 27 clinical isolates (Example 4); format: cell-based, Pseudomonas aeruginosa; conditions: for FICA: FIC of gemifloxacin; for Cgemifloxacin MIC: in combination with ceftazidime; for MIC: Pseudomonas aeruginosa, drug alone, read-out: gemifloxacin MIC
Description: The test organisms were clinical isolates collected in Korea. Organisms were frozen at −70 C prior to testing. Testing was done by the checkerboard method in 96-well plates using Mueller-Hinton broth. […] Ceftazidime was also dispensed alone in the first row in the first column. Test strains of P. aeruginosa were grown for 18 h in Mueller-Hinton broth, and then these overnight cultures were diluted with the same fresh medium to the density of approximately 10^7 CFU/mL. The bacterial concentrations were determined by measuring optical density or turbidity of the suspension and were verified by standard colony counts on antibiotic-free agar plates. A diluted bacterial solution was applied to 96-well plates containing serially diluted antimicrobial agents to yield 10^4 CFU per spot. Plates were incubated aerobically overnight.
(§1) Minimal inhibitory concentrations (MICs) for each separate drug were determined. For wells along the growth-no growth interface, synergy was determined by calculating the Fractional Inhibitory Concentration (FIC) index. The Fractional Inhibitory Concentration (FIC) indices were calculated using the following formula: FICindex=FICA+FICB=[A]/MICA+[B]/MICB • Wherein: • FICA(or B), is the FIC of drug A (or B) MICA (or B) is the MIC of the organism to drug A (or B) • A (or B) is concentration of drug A (or B) that is the lowest inhibitory concentration
(§2) The FIC indices were interpreted using the following criteria: • ≦0.5=Synergy • >0.5–1.0=Additive • >1.0–4.0=Indifference • >4.0=Antagonism

[2] = test system: clinically isolated P. aeruginosa strains; experiment: checkerboard method, gemifloxacin or ciprofloxacin with ceftazidime, 6 clinical isolates (Example 5); format: cell-based, Pseudomonas aeruginosa; conditions: for FICA: FIC of gemifloxacin; for Cgemifloxacin MIC: in combination with ceftazidime; for MIC: Pseudomonas aeruginosa, drug alone, read-out: gemifloxacin MIC
Description: as §1, §2
The test organisms were clinical isolates collected in Korea. Organisms were frozen at −70 C. prior to testing. […] Gemifloxacin or ciprofloxacin solution was dispensed alone in the first row and combined with ceftazidime in the remaining rows. Ceftazidime as also dispensed alone in the first row in the first column. Test strains of P. aeruginosa were grown for 18 h in Mueller-Hinton broth, and then these overnight cultures were diluted with the same fresh medium to the density of approximately 10^7 CFU/mL. The bacterial concentrations were determined by measuring optical density or turbidity of the suspension and were verified by standard colony counts on antibiotic-free agar plates. A diluted bacterial solution was applied to 96-well plates containing serially diluted antimicrobial agents to yield 5×10^5 CFU/mL. Plates were incubated at 35 C for 18 hours.
MICs for each separate drug were determined, and for wells along the growth-no growth interface, synergy was determined by calculating FIC Indices as in Example 4. FIC Indices were calculated and interpreted as in Example 4.

[3] = test system: S. saprophyticus 662; experiment: checkerboard titration, gemifloxacin and amoxicillin (MIC, FIC); format: cell-based, Staphylococcus saprophyticus
Description: The concentration range tested varied for each drug/organism combination to encompass the MIC endpoints of the individual components. […] The last well (H) in column 12 was used as a positive growth control well, containing only medium and test isolate.
The bacteria were diluted to a 0.5 McFarland standard and then further diluted 1/50. Each well was inoculated with 25 μl of the isolate to give a final inoculum density of approximately 5×10^5 cfu/ml. […] After inoculation, the plates were covered with a 96 well microtitre plate lid and incubated at 35° C. in ambient air for 20–24 hours. A 10 μl aliquot of the inoculum was plated on trypticase soy agar containing 5% sheep blood to determine the purity of the final test inoculum.
Following incubation, a microtitre mirror reader (Cooke Instruments Ltd., England) was used to assist in determining the microdilution MIC endpoints. The MIC was determined as the lowest concentration of compound that inhibited visible growth of the organism.
2) S. saprophyticus 662 was obtained from the SmithKline Beecham Anti-Infectives Research Culture Collection and stored at −80° C. in 10% glycerol. Before testing, the isolate was passaged onto agar plates (trypticase soy agar containing 5% sheeps blood) from the frozen stock for two consecutive days. Cation adjusted Mueller Hinton broth (BBL, Cockeysville, Md.) was used for the isolate.
The combined effect of gemifloxacin and amoxicillin was investigated in S. saprophyticus 662 by using the checkerboard titration method described in Example 1.

With CO/N=C1\CN(c2nc3c(cc2F)c(=O)c(C(=O)O)cn3C2CC2)CC1CN (racemic) [gemifloxacin, (R,S)-7-(3-aminomethyl-4-methoxyiminopyrrolidin-1-yl)-1-cyclopropyl-6-fluoro-4-oxo-1,4-dihydro-1,8-naphthyridine-3-carboxylic acid] the MIC range ([1]; 27 clinically isolated P. aeruginosa) was 0.25 to 32 µg/mL, the FICA ([1]; P. aeruginosa 6003) was 0.25 and the “Cgemifloxacin MIC” value ([1]; P. aeruginosa 6003) was 0.25 µg/mL. The FICA ([1]; P. aeruginosa 6021) was 0.25, the “Cgemifloxacin MIC” value ([1]; P. aeruginosa 6021) was 0.25 µg/mL and the FICA ([1]; P. aeruginosa 6030) was 0.13. For the same compound, the “Cgemifloxacin MIC” value ([1]; P. aeruginosa 6030) was 0.125 µg/mL, the FICA ([1]; P. aeruginosa 6045) was 0.25 and the “Cgemifloxacin MIC” value ([1]; P. aeruginosa 6045) was 1 µg/mL. The FICA ([1]; P. aeruginosa 6047) was 0.13, the “Cgemifloxacin MIC” value ([1]; P. aeruginosa 6047) was 1 µg/mL and the FICA ([1]; P. aeruginosa 6113) was 0.25. The “Cgemifloxacin MIC” value ([1]; P. aeruginosa 6113) was 0.125 µg/mL, the FICA ([1]; P. aeruginosa 6123) was 0.13 and the “Cgemifloxacin MIC” value ([1]; P. aeruginosa 6123) was 0.125 µg/mL. For the same compound, the FICA ([1]; P. aeruginosa 6173) was 0.13, the “Cgemifloxacin MIC” value ([1]; P. aeruginosa 6173) was 0.125 µg/mL and the FICA ([1]; P. aeruginosa P032) was 0.13. The “Cgemifloxacin MIC” value ([1]; P. aeruginosa P032) was 0.0625 µg/mL, the FICA ([1]; P. aeruginosa P036) was 0.13 and the “Cgemifloxacin MIC” value ([1]; P. aeruginosa P036) was 1 µg/mL. For the same compound, the FICA ([1]; P. aeruginosa P039) was 0.25, the “Cgemifloxacin MIC” value ([1]; P. aeruginosa P039) was 0.5 µg/mL and the MIC ([1]; P. aeruginosa 6003) was 1 µg/mL. It also gave an MIC ([1]; P. aeruginosa 6021) of 1 µg/mL, an MIC ([1]; P. aeruginosa 6030) of 1 µg/mL and an MIC ([1]; P. aeruginosa 6045) of 4 µg/mL. It also gave an MIC ([1]; P. aeruginosa 6047) of 8 µg/mL, an MIC ([1]; P. aeruginosa 6113) of 0.5 µg/mL and an MIC ([1]; P. aeruginosa 6123) of 1 µg/mL. The MIC ([1]; P. aeruginosa 6173) was 1 µg/mL, the MIC ([1]; P. aeruginosa P032) was 0.5 µg/mL and the MIC ([1]; P. aeruginosa P036) was 8 µg/mL. The MIC ([1]; P. aeruginosa P039) was 2 µg/mL, the FICA ([2]; P. aeruginosa 6140) was 0.06 and the “Cgemifloxacin MIC” value ([2]; P. aeruginosa 6140) was 0.5 µg/mL. The FICA ([2]; P. aeruginosa 6168) was 0.13, the “Cgemifloxacin MIC” value ([2]; P. aeruginosa 6168) was 0.0625 µg/mL and the FICA ([2]; P. aeruginosa P003) was 0.06. For the same compound, the “Cgemifloxacin MIC” value ([2]; P. aeruginosa P003) was 0.125 µg/mL, the MIC ([2]; P. aeruginosa 6140) was 8 µg/mL and the MIC ([2]; P. aeruginosa 6168) was 0.5 µg/mL. For the same compound, the MIC ([2]; P. aeruginosa P003) was 2 µg/mL, the MIC ([3]; Staphylococcus saprophyticus, 662, in presence of amoxicillin 0.125 μg/ml, read-out: gemifloxacin MIC) was 4 ng/mL and the “gemifloxacin MIC” value ([3]; drug alone, no unit in this line (other lines μg/ml)) was 0.016.

From US7169792B2, “Method of treating bacterial infections using gemifloxacin or a salt thereof and a β-lactam antibiotic” (priority 2002, dated 2007)
